PMC3116808 (Journal of natural products, 2011)
≈ marks a conversion by molar mass, not a printed value.

Key:
Format in all cases: cell-based
[1] = test system: P388 lymphocytic leukemia cell line; assay: Murine P388 lymphocytic leukemia cell line growth inhibition
MCF-7 = assay: Human cancer cell line minipanel: breast MCF-7; conditions: MCF7
NCI-H460 = assay: Human cancer cell line minipanel: lung NCI-H460
KM20L2 = assay: Human cancer cell line minipanel: colon KM20L2; conditions: KM-20L2
DU-145 = assay: Human cancer cell line minipanel: prostate DU-145
SF-268 = assay: Human cancer cell line minipanel: CNS SF-268
BXPC-3 = assay: Human cancer cell line minipanel: pancreas BXPC-3
[2] = test system: panel of murine and human cancer cell lines; assay: Cancer cell growth inhibition, summary over the panel

In the case of CC[C@H](C)[C@@H]([C@@H](CC(=O)N1CCC[C@H]1[C@H](OC)[C@@H](C)C(=O)NCCc1ccc(OP(=O)([O-])[O-])cc1)OC)N(C)C(=O)[C@@H](NC(=O)[C@H](C(C)C)N(C)C)C(C)C.[Na+].[Na+] [3b, Sodium Auristatin TP], the ED50 [1] is reported as less than 1 ng/mL, the “ED50 (nanomolar value in parentheses)” value [1] is reported as less than 1.2 nM and the GI50 (MCF-7) is reported as 0.68 ng/mL. For the same compound, the GI50 (NCI-H460) was 0.88 ng/mL, the GI50 (KM20L2) was 0.61 ng/mL and the GI50 (DU-145) was 0.54 ng/mL. The GI50 (SF-268) was 1.25 ng/mL and the GI50 (BXPC-3) was 46 ng/mL.

CC[C@H](C)[C@@H]([C@@H](CC(=O)N1CCC[C@H]1[C@H](OC)[C@@H](C)C(=O)Nc1ccc2ccccc2n1)OC)N(C)C(=O)[C@@H](NC(=O)[C@H](C(C)C)N(C)C)C(C)C [compound 4, Dov-Val-Dil-Dap-2-aminoquinoline] was tested, and the ED50 [1] was 31 ng/mL (≈ 42.8 nM), the “ED50 (nanomolar value in parentheses)” value [1] was 42.8 nM and the GI50 (MCF-7) was 4.6 ng/mL (≈ 6.34 nM). For the same compound, the GI50 (NCI-H460) was 16 ng/mL (≈ 22.1 nM), the GI50 (KM20L2) was 7.7 ng/mL (≈ 10.6 nM) and the GI50 (DU-145) was 23 ng/mL (≈ 31.7 nM). For the same compound, the GI50 (SF-268) was 29 ng/mL (≈ 40 nM) and the GI50 (BXPC-3) was 29 ng/mL (≈ 40 nM).

For CC[C@H](C)[C@@H]([C@@H](CC(=O)N1CCC[C@H]1[C@H](OC)[C@@H](C)C(=O)NCCc1ccc(OP(=O)([O-])[O-])cc1)OC)N(C)C(=O)[C@@H](NC(=O)[C@H](C(C)C)N(C)C)C(C)C.[K+].[K+] [3c, Potassium Auristatin TP], the ED50 [1] was 7.6 ng/mL and the “ED50 (nanomolar value in parentheses)” value [1] was 8.7 nM.

With CC[C@H](C)[C@@H]([C@@H](CC(=O)N1CCC[C@H]1[C@H](OC)[C@@H](C)C(=O)Nc1ccc2ncccc2c1)OC)N(C)C(=O)[C@@H](NC(=O)[C@H](C(C)C)N(C)C)C(C)C [compound 5, Dov-Val-Dil-Dap-6-aminoquinoline] the GI50 [2] was 0.1 ng/mL (≈ 0.138 nM), the ED50 [1] was 2.6 ng/mL (≈ 3.59 nM) and the “ED50 (nanomolar value in parentheses)” value [1] was 3.59 nM. The GI50 (MCF-7) was 0.14 ng/mL (≈ 0.193 nM), the GI50 (NCI-H460) was 0.36 ng/mL (≈ 0.497 nM) and the GI50 (KM20L2) was 0.25 ng/mL (≈ 0.345 nM). It also gave a GI50 (DU-145) of 0.3 ng/mL (≈ 0.414 nM), a GI50 (SF-268) of 0.16 ng/mL (≈ 0.221 nM) and a GI50 (BXPC-3) of 0.31 ng/mL (≈ 0.428 nM).

In the case of CC[C@H](C)[C@@H]([C@@H](CC(=O)N1CCC[C@H]1[C@H](OC)[C@@H](C)C(=O)NCCc1ccc(O)cc1)OC)N(C)C(=O)[C@@H](NC(=O)[C@H](C(C)C)N(C)C)C(C)C [compound 9, Dov-Val-Dil-Dap-4-hydroxyphenethylamide], the ED50 [1] is reported as 3.6 ng/mL (≈ 5.01 nM) and the “ED50 (nanomolar value in parentheses)” value [1] is reported as 5.0 nM.
